Earlier results, collected in patent publication US20060147391A1, “Composition for enhancing oral health” (priority 2002, published 2006).

System: oral microorganisms (intraoral bacteria such as Streptococcus mutans, Streptococcus sobrinus and Porphyromonas gingivalis)
Conditions: reported result in vitro (Korean publications, WO 00/67711)

CC(C)=CCC[C@@H](C)c1ccc(C)c(O)c1 [Xanthorrhizol]
antibacterial activity against oral microorganisms: excellent antibacterial activity
